According to paper PMC8443597, “A prostate-specific membrane antigen activated molecular rotor for real-time fluorescence imaging” (Nature Communications, 2021):

Tests used:
[1] = molecular target: T1, prostate-specific membrane antigen (PSMA) (Homo sapiens, UniProt Q04609); test: X-ray crystal structure ([…] Å); fluorescence saturation binding; IC50 from […]H-NAAG radioenzymatic assay; type: biochemical
T1 construct: gene FOLH1; extracellular domain of human PSMA (rhPSMA; amino acids 44–750)

[2] = molecular target: T1, prostate-specific membrane antigen (PSMA); test: fluorescence saturation binding ([…]) with rhPSMA; IC50 from […]H-NAAG radioenzymatic assay; type: biochemical

T1 sequence (Q04609 44-750): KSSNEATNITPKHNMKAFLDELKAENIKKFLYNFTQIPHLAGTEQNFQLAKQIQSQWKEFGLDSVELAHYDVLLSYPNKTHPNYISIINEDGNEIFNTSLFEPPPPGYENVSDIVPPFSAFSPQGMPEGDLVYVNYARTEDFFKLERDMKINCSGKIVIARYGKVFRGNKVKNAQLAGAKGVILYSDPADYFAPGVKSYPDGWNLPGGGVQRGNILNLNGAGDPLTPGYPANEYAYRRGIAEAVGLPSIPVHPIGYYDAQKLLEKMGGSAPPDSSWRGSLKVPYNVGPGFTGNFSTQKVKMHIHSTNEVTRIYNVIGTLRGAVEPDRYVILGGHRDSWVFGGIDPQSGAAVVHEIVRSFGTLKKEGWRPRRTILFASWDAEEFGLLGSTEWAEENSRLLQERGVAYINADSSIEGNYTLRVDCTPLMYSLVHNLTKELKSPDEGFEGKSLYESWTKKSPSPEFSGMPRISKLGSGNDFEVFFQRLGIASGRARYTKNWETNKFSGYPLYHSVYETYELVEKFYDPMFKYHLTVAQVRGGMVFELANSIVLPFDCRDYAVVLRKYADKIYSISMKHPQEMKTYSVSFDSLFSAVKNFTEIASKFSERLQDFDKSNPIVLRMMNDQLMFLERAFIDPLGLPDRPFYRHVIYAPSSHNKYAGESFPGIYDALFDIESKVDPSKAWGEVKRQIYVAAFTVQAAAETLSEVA

SMILES	IC50 [1]	IC50 [2]
COC(=O)CCN1CCCc2cc(-c3ccc(C=C(C#N)C(=O)NCCCC[C@H](NC(=O)N[C@@H](CCC(=O)O)C(=O)O)C(=O)O)s3)ccc21 [Glu-490, (((S)-1-carboxy-5-(2-cyano-3-(5-(1-(3-methoxy-3-oxopropyl)-1,2,3,4-tetrahydroquinolin-6-yl)thiophen-2-yl)acrylamido)pentyl)carbamoyl)-L-glutamic acid]	0.0631 nM	–
COC(=O)CCN1CCCc2cc(C=C(C#N)C(=O)NCCCC[C@H](NC(=O)N[C@@H](CNC(=O)C(=O)O)C(=O)O)C(=O)O)ccc21 [ODAP-436, (4 S,8 S)-15-cyano-16-(1-(3-methoxy-3-oxopropyl)-1,2,3,4-tetrahydroquinolin-6-yl)-1,6,14-trioxo-2,5,7,13-tetraazahexadec-15-ene-1,4,8-tricarboxylic acid]	–	0.118 nM
COC(=O)CCN1CCCc2cc(-c3ccc(C=C(C#N)C(=O)NCCCC[C@H](NC(=O)N[C@@H](CNC(=O)C(=O)O)C(=O)O)C(=O)O)s3)ccc21 [ODAP-490, (4 S,8 S)-15-cyano-16-(5-(1-(3-methoxy-3-oxopropyl)-1,2,3,4-tetrahydroquinolin-6-yl)thiophen-2-yl)-1,6,14-trioxo-2,5,7,13-tetraazahexadec-15-ene-1,4,8-tricarboxylic acid]	–	0.0996 nM
